Laboratory results from the NIST ThermoML archive (doi:10.1016/j.fluid.2008.09.004).

Columns and labels:
[1] = excess molar enthalpy (molar enthalpy of mixing); xn = mol fraction of the nth substance listed; details: 303.15 K, 101 kPa, Liquid, Calvet calorimetry
[2] = xn = mol fraction of the nth substance listed; details: 101 kPa, Liquid, Vibrating tube method
[3] = molar heat capacity at constant pressure; xn = mol fraction of the nth substance listed; details: 101 kPa, Liquid, Small sample (50 mg) DSC

CCCCCCn1cc[n+](C)c1.F[B-](F)(F)F [1-hexyl-3-methylimidazolium tetrafluoroborate] + CCO
[1]
Details | excess molar enthalpy [kJ/mol]
x1 = 0.101 | 1.35
x1 = 0.2037 | 2.05
x1 = 0.3018 | 2.41
x1 = 0.3977 | 2.57
x1 = 0.4988 | 2.48
x1 = 0.6045 | 2.18
x1 = 0.6901 | 1.85
x1 = 0.7932 | 1.31
x1 = 0.8733 | 0.848

Details | mass density, [2] [kg/m3] | molar heat capacity at constant pressure, [3] [J/K/mol]
293.15 K, x1 = 0.1052 | 904.3 | 152
293.15 K, x1 = 0.2011 | 969.7 | 184.5
293.15 K, x1 = 0.2832 | 1009.1 | 209.9
293.15 K, x1 = 0.3846 | 1045.5 | 240.4
293.15 K, x1 = 0.4943 | 1075.1 | 272.3
293.15 K, x1 = 0.5486 | 1086.6 | 288
293.15 K, x1 = 0.6882 | 1111.6 | 328.8
293.15 K, x1 = 0.7748 | 1124 | –
293.15 K, x1 = 0.7879 | – | 358.6
293.15 K, x1 = 0.7988 | 1127.1 | –
293.15 K, x1 = 0.8521 | 1133.6 | –
293.15 K, x1 = 0.8791 | – | 387.1
298.15 K, x1 = 0.1052 | 900.2 | 153.6
298.15 K, x1 = 0.2011 | 965.8 | 185.9
298.15 K, x1 = 0.2832 | 1005.2 | 211.4
298.15 K, x1 = 0.3846 | 1041.7 | 241.8
298.15 K, x1 = 0.4943 | 1071.4 | 273.8
298.15 K, x1 = 0.5486 | 1082.9 | 289.7
298.15 K, x1 = 0.6882 | 1108 | 330.9
298.15 K, x1 = 0.7748 | 1120.5 | –
298.15 K, x1 = 0.7879 | – | 360.8
298.15 K, x1 = 0.7988 | 1123.6 | –
298.15 K, x1 = 0.8521 | 1130.1 | –
298.15 K, x1 = 0.8791 | – | 389.4
303.15 K, x1 = 0.1052 | 896.2 | 155
303.15 K, x1 = 0.2011 | 961.8 | 187.3
303.15 K, x1 = 0.2832 | 1001.4 | 212.8
303.15 K, x1 = 0.3846 | 1037.9 | 243
303.15 K, x1 = 0.4943 | 1067.7 | 275.2
303.15 K, x1 = 0.5486 | 1079.3 | 291.3
303.15 K, x1 = 0.6882 | 1104.4 | 332.9
303.15 K, x1 = 0.7748 | 1117 | –
303.15 K, x1 = 0.7879 | – | 363
303.15 K, x1 = 0.7988 | 1120.1 | –
303.15 K, x1 = 0.8521 | 1126.6 | –
303.15 K, x1 = 0.8791 | – | 391.6
308.15 K, x1 = 0.1052 | 892.1 | 156.6
308.15 K, x1 = 0.2011 | 957.9 | 188.6
308.15 K, x1 = 0.2832 | 997.6 | 214.1
308.15 K, x1 = 0.3846 | 1034.2 | 244.4
308.15 K, x1 = 0.4943 | 1064 | 276.7
308.15 K, x1 = 0.5486 | 1075.6 | 293
308.15 K, x1 = 0.6882 | 1100.9 | 334.9
308.15 K, x1 = 0.7748 | 1113.5 | –
308.15 K, x1 = 0.7879 | – | 365
308.15 K, x1 = 0.7988 | 1116.6 | –
308.15 K, x1 = 0.8521 | 1123.1 | –
308.15 K, x1 = 0.8791 | – | 393.9
313.15 K, x1 = 0.1052 | 888 | 158.1
313.15 K, x1 = 0.2011 | 954 | 189.9
313.15 K, x1 = 0.2832 | 993.7 | 215.4
313.15 K, x1 = 0.3846 | 1030.4 | 245.7
313.15 K, x1 = 0.4943 | 1060.4 | 278.1
313.15 K, x1 = 0.5486 | 1072 | 294.6
313.15 K, x1 = 0.6882 | 1097.4 | 336.9
313.15 K, x1 = 0.7748 | 1110 | –
313.15 K, x1 = 0.7879 | – | 367.1
313.15 K, x1 = 0.7988 | 1113.1 | –
313.15 K, x1 = 0.8521 | 1119.7 | –
313.15 K, x1 = 0.8791 | – | 396.1
318.15 K, x1 = 0.1052 | 883.9 | 159.8
318.15 K, x1 = 0.2011 | 950 | 191.2
318.15 K, x1 = 0.2832 | 989.8 | 216.7
318.15 K, x1 = 0.3846 | 1026.7 | 247.1
318.15 K, x1 = 0.4943 | 1056.7 | 279.6
318.15 K, x1 = 0.5486 | 1068.4 | 296.2
318.15 K, x1 = 0.6882 | 1093.8 | 338.9
318.15 K, x1 = 0.7748 | 1106.5 | –
318.15 K, x1 = 0.7879 | – | 369
318.15 K, x1 = 0.7988 | 1109.6 | –
318.15 K, x1 = 0.8521 | 1116.2 | –
318.15 K, x1 = 0.8791 | – | 398.3

CCOS(=O)(=O)[O-].CCn1cc[n+](C)c1 [1-ethyl-3-methylimidazolium ethyl sulfate] + CCO
[1]
Details | excess molar enthalpy [kJ/mol]
x1 = 0.0486 | 0.522
x1 = 0.1198 | 1.09
x1 = 0.1961 | 1.26
x1 = 0.2952 | 1.32
x1 = 0.3917 | 1.24
x1 = 0.4937 | 1.15
x1 = 0.6087 | 0.922
x1 = 0.7017 | 0.715
x1 = 0.7963 | 0.494
x1 = 0.8774 | 0.306

Details | mass density, [2] [kg/m3] | molar heat capacity at constant pressure, [3] [J/K/mol]
293.15 K, x1 = 0.0157 | 813.7 | 114.9
293.15 K, x1 = 0.05 | 860 | –
293.15 K, x1 = 0.0523 | 862.6 | 124.6
293.15 K, x1 = 0.0978 | 913.4 | 137.1
293.15 K, x1 = 0.0991 | 914.6 | –
293.15 K, x1 = 0.1944 | 996 | 163.7
293.15 K, x1 = 0.3073 | 1063.7 | 194.6
293.15 K, x1 = 0.4109 | 1109.6 | 223.4
293.15 K, x1 = 0.5084 | 1143.2 | 250.8
293.15 K, x1 = 0.5927 | 1167 | 274.9
293.15 K, x1 = 0.6995 | 1191.8 | 305.4
293.15 K, x1 = 0.7883 | 1208.9 | 331.1
293.15 K, x1 = 0.8797 | 1223.9 | 357.4
293.15 K, x1 = 0.9388 | 1232.5 | 374.4
298.15 K, x1 = 0.0157 | 809.5 | 116.8
298.15 K, x1 = 0.05 | 855.9 | –
298.15 K, x1 = 0.0523 | 858.5 | 126.2
298.15 K, x1 = 0.0978 | 909.4 | 138.5
298.15 K, x1 = 0.0991 | 910.6 | –
298.15 K, x1 = 0.1944 | 992.1 | 165
298.15 K, x1 = 0.3073 | 1060 | 195.9
298.15 K, x1 = 0.4109 | 1105.9 | 224.8
298.15 K, x1 = 0.5084 | 1139.6 | 252.3
298.15 K, x1 = 0.5927 | 1163.4 | 276.5
298.15 K, x1 = 0.6995 | 1188.3 | 307.2
298.15 K, x1 = 0.7883 | 1205.4 | 333
298.15 K, x1 = 0.8797 | 1220.5 | 359.4
298.15 K, x1 = 0.9388 | 1229.1 | 376.5
303.15 K, x1 = 0.0157 | 805.3 | 118.6
303.15 K, x1 = 0.05 | 851.8 | –
303.15 K, x1 = 0.0523 | 854.4 | 127.9
303.15 K, x1 = 0.0978 | 905.3 | 139.9
303.15 K, x1 = 0.0991 | 906.6 | –
303.15 K, x1 = 0.1944 | 988.3 | 166.3
303.15 K, x1 = 0.3073 | 1056.3 | 197.2
303.15 K, x1 = 0.4109 | 1102.3 | 226.3
303.15 K, x1 = 0.5084 | 1136 | 254
303.15 K, x1 = 0.5927 | 1159.9 | 278.3
303.15 K, x1 = 0.6995 | 1184.8 | 309
303.15 K, x1 = 0.7883 | 1202 | 335
303.15 K, x1 = 0.8797 | 1217.1 | 361.6
303.15 K, x1 = 0.9388 | 1225.7 | 378.8
308.15 K, x1 = 0.0157 | 801 | 120.7
308.15 K, x1 = 0.05 | 847.7 | –
308.15 K, x1 = 0.0523 | 850.3 | 129.7
308.15 K, x1 = 0.0978 | 901.3 | 141.6
308.15 K, x1 = 0.0991 | 902.6 | –
308.15 K, x1 = 0.1944 | 984.4 | 167.7
308.15 K, x1 = 0.3073 | 1052.6 | 198.8
308.15 K, x1 = 0.4109 | 1098.7 | 227.9
308.15 K, x1 = 0.5084 | 1132.5 | 255.8
308.15 K, x1 = 0.5927 | 1156.4 | 280.3
308.15 K, x1 = 0.6995 | 1181.4 | 311.1
308.15 K, x1 = 0.7883 | 1198.5 | 337.2
308.15 K, x1 = 0.8797 | 1213.7 | 364
308.15 K, x1 = 0.9388 | 1222.3 | 381.3
313.15 K, x1 = 0.0157 | 796.7 | 122.8
313.15 K, x1 = 0.05 | 843.5 | –
313.15 K, x1 = 0.0523 | 846.1 | 131.6
313.15 K, x1 = 0.0978 | 897.3 | 143.2
313.15 K, x1 = 0.0991 | 898.5 | –
313.15 K, x1 = 0.1944 | 980.6 | 169.2
313.15 K, x1 = 0.3073 | 1048.8 | 200.4
313.15 K, x1 = 0.4109 | 1095 | 229.6
313.15 K, x1 = 0.5084 | 1128.9 | 257.6
313.15 K, x1 = 0.5927 | 1152.9 | 282.3
313.15 K, x1 = 0.6995 | 1177.9 | 313.3
313.15 K, x1 = 0.7883 | 1195.1 | 339.5
313.15 K, x1 = 0.8797 | 1210.2 | 366.5
313.15 K, x1 = 0.9388 | 1218.9 | 383.9
318.15 K, x1 = 0.0157 | 792.3 | 125
318.15 K, x1 = 0.05 | 839.2 | –
318.15 K, x1 = 0.0523 | 841.9 | 133.6
318.15 K, x1 = 0.0978 | 893.2 | 145
318.15 K, x1 = 0.0991 | 894.4 | –
318.15 K, x1 = 0.1944 | 976.6 | 170.9
318.15 K, x1 = 0.3073 | 1045.1 | 202.2
318.15 K, x1 = 0.4109 | 1091.4 | 231.5
318.15 K, x1 = 0.5084 | 1125.3 | 259.7
318.15 K, x1 = 0.5927 | 1149.3 | 284.5
318.15 K, x1 = 0.6995 | 1174.4 | 315.6
318.15 K, x1 = 0.7883 | 1191.7 | 342
318.15 K, x1 = 0.8797 | 1206.9 | 369.1
318.15 K, x1 = 0.9388 | 1215.5 | 386.7
